Results taken from patent EP4674418A1, “SOLUTION, FREEZE-DRIED FORMULATION, FREEZE-DRIED F[…] PACKAGE, INJECTION, AND INJECTION PREPARATION METHOD” (Ascentawits Pharmaceuticals, Ltd., priority 2023, dated 2024).
Values after ≈ are worked out from the molar mass of the structure shown. Like-named read-outs stand apart in the source and are kept apart here.

How the values were obtained:
[1] = Solubility experiment of TH-302 (saturated solution method, HPLC); type: physicochemical; conditions: thermodynamic from solid
Procedure: The solubility is measured in an experiment by the saturated solution method; that is, the solid TH-302 was directly charged into the solvent until insoluble matter or turbidity appears. After clarification for a period of time, the solution was directly filtered. The clarified filtrate was taken directly for determination of the concentration of TH-302. The resulting concentration is exactly the solubility of TH-302 in this solvent system. Please refer to Tables 1, 2, and 3 for specific solubility data.
For the method for measuring the concentration of TH-302 (mg/ml), please refer to the HPLC method described in the patent WO2008083101A1 owned by Threshold Pharmaceuticals Inc. (see Example 2. An Ethanol Formulation of TH302, for details); and the external standard method was used for quantification.

[2] = Saturated solubility of the drug in D5W solution under strong shaking; type: physicochemical; conditions: 5% glucose solution (D5W), saline or isotonic, thermodynamic from solid, shaken 2 minutes, filtered, room temperature 24 hours
Procedure: The TH-302 sample was weighed accurately in an amount of about 60 mg, placed in a transparent vial, and added with 6 mL of 5% glucose solution (D5W). The resulting solution was shaken vigorously for 2 minutes to obtain a solubility- stock solution. It was observed that the solubility-stock solution contained insoluble substances. Thus, the solubility- stock solution was filtered and then became clear. […] This value was exactly the saturated solubility of the drug in D5W solution.

[3] = Freeze-thaw cycle stability of freeze-dried formulations; type: physicochemical; conditions: TH-302 active pharmaceutical ingredient used for the two batches
Procedure: The freeze-thaw test was to place the sample in the dark at (-20°C±5°C) for 2 days, and at (25°C±5°C) for another 2 days, as a cycle. The HPLC purity of TH-302 in the freeze-dried samples was determined. Table 32: HPLC purity test data of TH-302 active pharmaceutical ingredient, two batches of prepared freeze-dried formulations, and the freeze-dried formulations after three freeze-thaw cycles (%)

[4] = concentrated injection with ethanol, dimethlyacetamide, polysorbate 80; mainly induced by dimethlyacetamide; WO2015013448A1; cited from earlier work

## Cn1c(COP(=O)(NCCBr)NCCBr)cnc1[N+](=O)[O-] [TH-302]
[1]; 1% N,N-dimethylacetamide aqueous solution (volume), water, 1%N,N-dimethlyacetamide aqueous solution (volume), read-out: Solubility
  solubility: 8050 µg/mL (≈ 17.9 mM)
[1]; 1% ethanol aqueous solution (volume), water, read-out: Solubility
  solubility: 6580 µg/mL (≈ 14.7 mM)
[1]; 1% polyethylene glycol aqueous solution (volume), water, read-out: Solubility
  solubility: 6810 µg/mL (≈ 15.2 mM)
[1]; 20% ethanol aqueous solution (volume), aqueous with cosolvent or surfactant or cyclodextrin, read-out: Solubility
  solubility: 8400 µg/mL (≈ 18.7 mM)
[1]; aqueous with cosolvent or surfactant or cyclodextrin, 1%Tween 80 aqueous solution (volume), read-out: Solubility
  solubility: 7210 µg/mL (≈ 16.1 mM)
[1]; aqueous with cosolvent or surfactant or cyclodextrin, 20% tert-butanol aqueous solution, volume ratio, commercial TH-302, read-out: Solubility
  solubility: 10000 µg/mL
[1]; aqueous with cosolvent or surfactant or cyclodextrin, 30% tert-butanol in water, mass ratio, TH-302 synthesized by the applicants, read-out: Solubility
  solubility: 42000 µg/mL
[1]; aqueous with cosolvent or surfactant or cyclodextrin, 40% tert-butanol aqueous solution, volume ratio, commercial TH-302, read-out: Solubility
  solubility: > 40000 µg/mL
[1]; organic solvent or mixture, 60% tert-butanol in water, mass ratio, TH-302 synthesized by the applicants, read-out: Solubility
  solubility: 146000 µg/mL
[1]; organic solvent or mixture, 70% tert-butanol in water, mass ratio, TH-302 synthesized by the applicants, read-out: Solubility
  solubility: 165000 µg/mL
[1]; organic solvent or mixture, 75% tert-butanol in water, mass ratio, TH-302 synthesized by the applicants, read-out: Solubility
  solubility: 151000 µg/mL
[1]; organic solvent or mixture, 80% tert-butanol aqueous solution, volume ratio, commercial TH-302, read-out: Solubility
  solubility: 88500 µg/mL
[1]; organic solvent or mixture, 80% tert-butanol in water, mass ratio, TH-302 synthesized by the applicants, read-out: Solubility
  solubility: 143000 µg/mL
[1]; organic solvent or mixture, 90% tert-butanol aqueous solution, volume ratio, commercial TH-302, read-out: Solubility
  solubility: 76400 µg/mL
[1]; organic solvent or mixture, 90% tert-butanol in water, mass ratio, TH-302 synthesized by the applicants, read-out: Solubility
  solubility: 66600 µg/mL
[1]; organic solvent or mixture, 90% tert-butanol/10% ethanol, volume ratio, commercial TH-302, read-out: Solubility
  solubility: 10700 µg/mL
[1]; organic solvent or mixture, 95% tert-butanol aqueous solution, volume ratio, commercial TH-302, read-out: Solubility
  solubility: 32300 µg/mL
[1]; organic solvent or mixture, 95% tert-butanol in water, mass ratio, TH-302 synthesized by the applicants, read-out: Solubility
  solubility: 36800 µg/mL
[1]; organic solvent or mixture, 95% tert-butanol/5% ethanol, volume ratio, commercial TH-302, read-out: Solubility
  solubility: 9980 µg/mL
[1]; organic solvent or mixture, 100% tert-butanol, TH-302 synthesized by the applicants, read-out: Solubility
  solubility: 11800 µg/mL (≈ 26.2 mM)
[1]; organic solvent or mixture, tert-butanol, commercial TH-302, read-out: Solubility
  solubility: 8980 µg/mL (≈ 20 mM)
[1]; pH 2, simulated gastric fluid, pH2, HCl solution, read-out: Solubility
  solubility: 6940 µg/mL (≈ 15.5 mM)
[1]; pH 4, aqueous buffer, pH4, phthalate buffer solution, read-out: Solubility
  solubility: 7220 µg/mL (≈ 16.1 mM)
[1]; pH 6, aqueous buffer, pH6, phosphate buffer solution, read-out: Solubility
  solubility: 5810 µg/mL (≈ 12.9 mM)
[1]; pH 7, aqueous buffer, pH7, phosphate buffer solution, read-out: Solubility
  solubility: 5870 µg/mL (≈ 13.1 mM)
[1]; pH 8, aqueous buffer, pH8, phosphate buffer solution, read-out: Solubility
  solubility: 5940 µg/mL (≈ 13.2 mM)
[1]; pH 10, aqueous buffer, pH10, borate buffer solution, read-out: Solubility
  solubility: 6070 µg/mL (≈ 13.5 mM)
[1]; tert-butanol-water mixed solvent, aqueous with cosolvent or surfactant or cyclodextrin, summary statement, maximum reached, read-out: solubility in the tert-butanol-water mixed solvent system
  solubility: ≥ 160000 µg/mL
[2]
  solubility at 2 min: 7250 µg/mL (≈ 16.1 mM)
[3]
  HPLC purity: 95.87%
[4]
  TH-302 administration reactions: lip swelling and urticaria
